# Measurements reported in patent US20240116850A1, “COMPOSITIONS AND METHODS RELATED TO BICYCLO[2.2.1] HEPTANAMINE-CONTAINING COMPOUNDS” (The Broad Institute, Inc., priority 2020, published 2024).
# Assays:
# [1] = tested on: MUC1-wt; assay: High-content imaging assay of MUC1-wt total cytoplasm intensity in P cells; format: cell-based; conditions: for EC50: MUC1-wt total cytoplasm intensity, P cells, 48 hr incubation; for WT ECMax: MUC1-wt, DMSO = 0, JQ1 (250 nM) = −100% activity
# Experimental: (§1) P cells were seeded 24 hr prior to compound treatment at a density of 12,000 cells/well in 384 well Cell Carrier Ultra plates (6057308, Perkin Elmer), pre-coated with 0.25 mg/mL Synthemax 11 SC Substrate (3535, Corning). Compounds were used at 5 doses (35, 3.5, 0.35, 0.035 and 0.0035 μM) for the primary screen and 10 doses (16, 5.6, 1.8, 0.6, 0.21, 0.07, 0.02, 0.008, 0.002 and 0.0008 μM) for the following screens. The compounds, in two replicates, were transferred from compound source plates to the cell plates using the HighRes Pin Tool. DMSO was used as a negative control and JQ1 (250 nM) (a bromodomain inhibitor) was chosen as a positive control, based on earlier studies showing its potent effect on reducing total MUC1 mRNA levels (data not shown). After 48 hr incubation, cells were fixed for 20 min in 4% PFA (Electron Microscopy Sciences) in PBS, washed twice, then permeabilized (10 min) with 0.5% Triton-X100 (X100-100MVL, Sigma-Aldrich) in PBS and washed once more. Cells were blocked for 10 min at RT with Blocking solution (100 mM Tris HCL pH8; l150 mM NaCL; 5 g/L Blocking Reagent [11096176001, Roche]), then incubated 90 min at RT with one of the following primary antibodies in Roche Blocking solution: 1:500, monoclonal Fab-A-V5H anti-MUC1-fs, AbD22655.2, Bio-Rad; 1:2000, monoclonal mouse anti-MUC1 (214D4), 05-652-KC, Millipore; 1:1000, monoclonal, Rabbit anti-GM130 (D6B1) XP, 12480, Cell signaling technology. The primary antibody cocktail was incubated at RT for 1.5 hr, followed by four PBS wash cycles. The secondary antibody cocktail contained four components that were all prepared at a 1:1000 dilution in the Roche blocking solution and consisted of Alexa Fluor® 488-conjugated AffiniPure F(ab′)2 Fragment Goat anti-Human IgG, 109-546-097, Jackson Immunoresearch; Alexa Fluor® 647-conjugated Goat anti-Rabbit IgG, A-21246, Thermo Fisher Scientific®; Alexa Fluor® 546 Goat anti-mouse IgG, A-21123, Thermo Fisher Scientific® and Hoechst 33342 stain (62249, Thermo Fisher Scientific®). The secondary antibody cocktail was incubated at RT for 45 min, followed by four PBS wash cycles. Finally, plates were sealed with a Plate Loc plate and stored in Liconic incubator at 10° C. until imaging. Following image analysis, three parameters were selected, i) MUC1-fs and ii) MUC1-wt total cytoplasm intensity (averaged per cell) and iii) cell number as was detected by Hoechst 33342 stained nuclei. The levels of MUC1-fs and MUC1-wt found following DMSO and JQ1 were defined as 0 and −100% activity, respectively. The values obtained for all compounds were normalized accordingly. Cell number was normalized to DMSO control.
# (§2) The pure enantiomers were profiled in the high-content imaging assay for the ability to reduce the amount of FS MUC1 protein in the cytoplasm (Table 48) following the procedure of Example 4.
# [2] = tested on: MUC1-fs; assay: High-content imaging assay of MUC1-fs total cytoplasm intensity in P cells; format: cell-based; conditions: for EC50: MUC1-fs total cytoplasm intensity, P cells, 48 hr incubation; for ECMax: MUC1-fs, DMSO = 0, JQ1 (250 nM) = −100% activity
# Experimental: as §1, §2
# [3] = high-content imaging assay, procedure of Example 4
SMILES,EC50 [1],EC50 [2],"IC50 [2, 3]",IC50 ([2]; second pair of columns (c3-c4)),"reduction in wild-type MUC1 levels [1, 3]",WT ECMax [1],ECMax [2],"FS MUC1 cytoplasm EMax (%) [2, 3]",FS MUC1 cytoplasm EMax (%) ([2]; second pair of columns (c3-c4))
"CC(C)C1C2CCC(C2)C1N.Cl (racemic) [BRD4780, rac-3-exo-isopropylbicyclo[2.2.1]heptan-2-endo-amine hydrochloride, reference compound]",,,,,no observed reduction,,,,
CCC[C@@H]1[C@H]2CC[C@H](C2)[C@H]1N.Cl (racemic) [Compound 107-rac],> 32 µM,> 32 µM,,,,8.64%,10.08%,,
CCC[C@H]1[C@H]2CC[C@H](C2)[C@@H]1N.Cl (racemic) [Compound 108-rac],> 32 µM,> 32 µM,,,,−4.32%,−8.01%,,
Cl.N[C@@H]1[C@@H]2CC[C@@H](C2)[C@H]1C1CCC1 (racemic) [Compound 113],> 32 µM,0.478 µM,,,,13.12%,−46.53%,,
Cl.N[C@H]1[C@@H]2CC[C@@H](C2)[C@@H]1C1CCC1 (racemic) [Compound 114-rac],> 32 µM,12.9 µM,,,,18.3%,−44.74%,,
Cl.N[C@@H]1[C@@H]2CC[C@@H](C2)[C@H]1C1CCCCC1 (racemic) [Compound 118],> 32 µM,> 32 µM,,,,−8.52%,−9.08%,,
Cl.N[C@H]1[C@@H]2CC[C@@H](C2)[C@@H]1C1CCCCC1 (racemic) [Compound 119],> 32 µM,> 32 µM,,,,14.48%,20.39%,,
Cl.N[C@@H]1[C@@H]2CC[C@@H](C2)[C@H]1c1ccccc1 (racemic) [Compound 120],> 32 µM,> 32 µM,,,,15.88%,−27.71%,,
Cl.N[C@@H]1[C@@H]2CC[C@@H](C2)[C@H]1c1cccs1 (racemic) [Compound 122],> 32 µM,> 32 µM,,,,−10.53%,−12.17%,,
"CC(C)[C@H]1[C@@H]2CC[C@@H](C2)[C@@H]1N.Cl (single isomer, unassigned) [BRD4780 Fr1]",,,,,,,,−42%,113%
"CC(C)[C@@H]1[C@H]2CC[C@H](C2)[C@H]1N.Cl (single isomer, unassigned) [BRD4780 Fr2]",,,,,,,,−46%,60%
"C[C@@H]1[C@H]2CC[C@H](C2)[C@H]1N.Cl (single isomer, unassigned) [Compound 104-P1]",,,,,,−13.75%,−47.64%,,
"C[C@@H]1[C@H]2CC[C@H](C2)[C@H]1N.Cl (single isomer, unassigned) [Compound 104-P2]",,,,,,−14.86%,−78.16%,,
"Cl.N[C@H]1[C@@H]2CC[C@@H](C2)[C@@H]1C1CC1 (single isomer, unassigned) [Compound 110-P1]",,,,,,−8.95%,−50.96%,,
"Cl.N[C@@H]1[C@H]2CC[C@H](C2)[C@H]1C1CC1 (single isomer, unassigned) [Compound 110-P2]",,,,,,−12.31%,−47.09%,,

# Further lines, with some results ahead:
EC50 [1],EC50 [2],"IC50 [2, 3]",IC50 ([2]; second pair of columns (c3-c4)),SMILES,"reduction in wild-type MUC1 levels [1, 3]",WT ECMax [1],ECMax [2],"FS MUC1 cytoplasm EMax (%) [2, 3]",FS MUC1 cytoplasm EMax (%) ([2]; second pair of columns (c3-c4))
> 32 µM,2.14 µM,,,"CC(C)[C@H]1[C@H]2CC[C@H](C2)[C@H]1N.Cl (racemic) [Compound 103, rac-3-endo-isopropylbicyclo[2.2.1]heptan-2-endo-amine hydrochloride]",,−13.31%,−83.25%,,
> 32 µM,0.45 µM,,,Cl.N[C@@H]1[C@@H]2CC[C@@H](C2)[C@H]1C1CC1 (racemic) [Compound 109],,−12.5%,−73.56%,,
> 32 µM,> 32 µM,,,CC(C)C[C@@H]1[C@H]2CC[C@H](C2)[C@H]1N.Cl (racemic) [Compound 111],,10.58%,−9.02%,,
> 32 µM,> 32 µM,,,CC(C)C[C@H]1[C@H]2CC[C@H](C2)[C@@H]1N.Cl (racemic) [Compound 112],,−8.84%,18.48%,,
12.3 µM,0.295 µM,,,CC(C)(C)[C@@H]1[C@H]2CC[C@H](C2)[C@H]1N.Cl (racemic) [Compound 115],,71.79%,−79.02%,,
,,0.156 µM,9.2 µM,"CC(C)[C@H]1[C@@H]2CC[C@@H](C2)[C@@H]1N.Cl (single isomer, unassigned) [BRD4780 Fr1, hydrochloride]",,,,,
,,0.175 µM,12.6 µM,"CC(C)[C@@H]1[C@H]2CC[C@H](C2)[C@H]1N.Cl (single isomer, unassigned) [BRD4780 Fr2, hydrochloride]",,,,,
> 32 µM,19.6 µM,,,"C[C@@H]1[C@H]2CC[C@H](C2)[C@H]1N.Cl (single isomer, unassigned) [Compound 104-P1, (1R,2R,3R,4S)-3-methylbicyclo[2.2.1]heptan-2-amine hydrochloride]",,,,,
> 32 µM,4.5 µM,,,"C[C@@H]1[C@H]2CC[C@H](C2)[C@H]1N.Cl (single isomer, unassigned) [Compound 104-P2, hydrochloride]",,,,,
> 32 µM,> 32 µM,,,"Cl.N[C@@H]1[C@@H]2CC[C@@H](C2)[C@H]1C1CC1 (single isomer, unassigned) [Compound 109-P1]",,9.06%,−32.29%,,
> 32 µM,0.52 µM,,,"Cl.N[C@H]1[C@H]2CC[C@H](C2)[C@@H]1C1CC1 (single isomer, unassigned) [Compound 109-P2]",,−14.32%,−74.31%,,
> 32 µM,8.49 µM,,,"Cl.N[C@H]1[C@@H]2CC[C@@H](C2)[C@@H]1C1CC1 (single isomer, unassigned) [Compound 110-P1, (1R,2S,3S,4S)-3-cyclopropylbicyclo[2.2.1]heptan-2-amine hydrochloride]",,,,,
> 32 µM,3.38 µM,,,"Cl.N[C@@H]1[C@H]2CC[C@H](C2)[C@H]1C1CC1 (single isomer, unassigned) [Compound 110-P2, (1S,2R,3R,4R)-3-cyclopropylbicyclo[2.2.1]heptan-2-amine hydrochloride]",,,,,
> 32 µM,> 32 µM,,,"CC(C)C[C@@H]1[C@H]2CC[C@H](C2)[C@H]1N.Cl (single isomer, unassigned) [Compound 111-P1]",,−10.33%,−12.73%,,
> 32 µM,> 32 µM,,,"CC(C)C[C@H]1[C@@H]2CC[C@@H](C2)[C@@H]1N.Cl (single isomer, unassigned) [Compound 111-P2]",,−9.06%,−11.51%,,
< 32 µM,> 32 µM,,,"CC(C)C[C@H]1[C@H]2CC[C@H](C2)[C@@H]1N.Cl (single isomer, unassigned) [Compound 112-P1]",,9.15%,26.46%,,
> 32 µM,> 32 µM,,,"CC(C)C[C@@H]1[C@@H]2CC[C@@H](C2)[C@H]1N.Cl (single isomer, unassigned) [Compound 112-P2]",,7.52%,13.14%,,
> 32 µM,> 32 µM,,,"Cl.N[C@@H]1[C@@H]2CC[C@@H](C2)[C@H]1C1CCC1 (single isomer, unassigned) [Compound 113-P1]",,−9.71%,−13.24%,,
